Molecular target: T1, glycine-binding site of the NMDA receptor channel (Rattus norvegicus, UniProt P35439)
T1 construct: from tissue; host or cells: rat brain cortex and hippocampus membrane homogenate (male Wistar rats, Charles River)
Experiment: Receptor binding test, displacement of (3H)-MDL 105.519 on rat brain membrane homogenates
Details: rat cortex and hippocampus membrane homogenate; for inhibition at 10 µM: (3H)-MDL 105.519; for Ki: 1 nmol/l (3H)-MDL 105.519, IC50 converted using Cheng-Prusoff equation
Method: The investigations for determining the affinity of the γ-lactone compounds of the general formula I according to the invention for the glycine-binding site of the NMDA receptor channel were performed on brain membrane homogenates (homogenate of cortex and hippocampus area from the brain of male rats, Wistar strain, Charles River, WIGA GmbH, Sulzbach, Germany), as described in B. M. Baron et al., Journal of Pharmacology and Experimental Therapeutics, vol. 279, pages 62-68, 1996. The corresponding literature description is hereby introduced as a reference and is deemed to be part of the disclosure.
To this end, the cortex and hippocampus were dissected out of freshly harvested rat brains and homogenised with ice cooling in 5 mmol/l of TRIS-acetate buffer, 0.32 mol/l of sucrose, pH 7.4 (10 ml/g fresh weight) using a Potter homogeniser (Braun, Melsungen, Germany, 10 piston strokes at 500 revolutions per minute (rpm)) and then centrifuged for 10 minutes at 1,000 g and 4° C. The first supernatant was collected and the sediment again homogenised with ice cooling with 5 mmol/l of TRIS-acetate buffer, 0,32 mol/l of sucrose, pH 7.4 (5 ml/g of original fresh weight of rat cerebral cortex and hippocampus) with the Potter homogeniser (10 piston strokes at 500 rpm) and centrifuged for 10 minutes at 1,000 g and 4° C. The resultant supernatant was combined with the supernatant from the first centrifugation and centrifuged at 17,000 g for 20 minutes at 4° C. The supernatant after this centrifugation was discarded and the membrane sediment was resuspended with 5 mmol/l of TRIS-acetate buffer, pH 8.0 (20 ml/g of original fresh weight) and homogenised with 10 piston strokes at 500 rpm.
The membrane homogenate was then incubated for 1 hour at 4° C. and centrifuged for 30 minutes at 50,000 g and 4° C. The supernatant was discarded and the centrifuge tubes containing the membrane sediment were sealed with Parafilm and frozen for 24 hours at −20° C. On the following day, the membrane sediment was thawed and resuspended with ice-cold 5 mmol/l TRIS-acetate buffer, 0,1% saponin (wt./vol.), pH 7.0 (10 ml/g of original fresh weight) and homogenised with 10 piston strokes at 500 rpm and then centrifuged for 20 minutes at 50,000 g and 4° C. The resultant supernatant was discarded and the sediment resuspended in a small volume with 5 mmol/l of TRIS-acetate buffer, pH 7.0 (approx. 2 ml/g of original fresh weight) and again homogenised with 10 piston strokes at 500 rpm. After determination of the protein content, the membrane homogenate was adjusted with 5 mmol/l TRIS-acetate buffer, pH 7.0, to a protein concentration of 10 mg of protein/ml and frozen in aliquots until used for testing.
The receptor binding test was performed by thawing aliquots, diluting them 1:10 with 5 mmol/l TRIS-acetate buffer, pH 7.0, homogenising them with ice-cooling with 10 piston strokes at 500 rpm with the Potter homogeniser and centrifuging them for 60 minutes at 55,000 g at 4° C. The supernatant was decanted and the membrane sediment adjusted with ice-cold 50 mmol/l TRIS-acetate buffer, pH 7.0, to a protein concentration of 1 mg/ml and again homogenised with 10 piston strokes at 500 rpm and kept in suspension in an ice bath with stirring on a magnetic stirrer. This membrane homogenate was used in the receptor binding test in a quantity of 100 μl per 1 ml batch (0.1 mg of protein/ml in the final batch).
In the binding test, 50 mmol/l TRIS-acetate buffer pH 7.0 was used as the buffer and 1 nmol/l of (^3H)-MDL 105.519 was used as the radioactive ligand, as described in the above-stated literature reference by B. M. Baron et al. The level of non-specific binding was determined in the presence of 1 mmol/l of glycine.
In further batches, the compounds of the general formula I according to the invention were added in concentration series and the displacement of the radioactive ligand from its specific binding at the glycine-binding site of the NMDA receptor channel was determined. […]

CC1(c2ccccc2)CC(Nc2cc(Cl)cc(Cl)c2)C(=O)O1 (stereo not shown) [Example 12, 3-(3,5-Dichloro-phenylamino)-5-methyl-5-phenyl-dihydro-furan-2-one]
inhibition at 10 µM: 80% | Ki: 0.8 µM

CC1(c2ccc(F)cc2)CC(Nc2cc(Cl)cc(Cl)c2)C(=O)O1 (stereo not shown) [Example 13, 3-(3,5-Dichloro-phenylamino)-5-(4-fluoro-phenyl)-5-methyl-dihydro-furan-2-one]
inhibition at 10 µM: 70% | Ki: 0.8 µM

CC1(c2ccc(Cl)cc2)CC(Nc2cc(Cl)cc(Cl)c2)C(=O)O1 (stereo not shown) [Example 25, 5-(4-Chloro-phenyl)-3-(3,5-dichloro-phenylamino)-5-methyl-dihydro-furan-2-one]
inhibition at 10 µM: 71% | Ki: 1.3 µM

CCCCC1(c2ccccc2)CC(Nc2cc(Cl)cc(Cl)c2)C(=O)O1 (stereo not shown) [Example 108, 5-n-Butyl-3-(3,5-dichlorophenylamino)-5-phenyl-dihydrofuran-2-one]
inhibition at 10 µM: 62%
